Reference: patent publication US5688773A, “Method of selectively destroying neoplastic cells” (priority 1994, dated 1997)

What was measured:
control tumor MCF-7 Z3 = assay: MCF-7 tumors in nude mouse model; type: in vivo, nude mice; settings: 100 mg/kg ×2 intraperitoneal, day 0 and day 2
Procedure: (§1) MCF-7 cells or stable MCF-7 cell transfectants expressing cytochrome P450 2B1 or E. coli β-galactosidase (lacZ) were grown in cell culture. Cells in the exponential growth phase were harvested and then injected subcutaneously (1×10^7 cells in 0.2 mL) in the flanks of nude mice. A single 17β-estradiol pellet (1.7 mg hormone/60-day release pellet, Innovative Research, Toledo, Ohio) was implanted one day before tumor inoculation. At one month after tumor inoculation, the size of each tumor was measured using a vernier caliper.
(§2) Nude mice were then treated with cyclophosphamide given at 100 mg/kg body weight×2, by intraperitoneal injection given on day 0 and again on day 2. Tumor size measurements were then again determined using a vernier caliper, and data are expressed relative to tumor sizes as of day 0, the day of initial cyclophosphamide (CPA) injection.

[1] = tested on: cytochrome P450 2B1-expressing MCF-7 cells; assay: MCF-7 tumors in nude mouse model; type: in vivo, nude mice; settings: 100 mg/kg ×2 intraperitoneal, day 0 and day 2
Procedure: as §1, §2

[2] = tested on: C6 cells exposed to CM from C6-P450; assay: C6 colony formation after conditioned medium from drug-exposed cells; settings: for Colony numbers: colonies six days later
[3] = tested on: parental 9L cells co-cultured with 9L-ZP cells; assay: Co-culture experiments with culture inserts; type: cell-based, rat; settings: 1 mM cyclophosphamide, 5 days, no cell contact
Procedure: Co-culture Experiments: Parental 9L cells were plated in the bottom wells of culture plates (Falcon 3502), and cytochrome P450 2B1-negative or cytochrome P450 2B1-positive cells were plated into 25 mm cell culture inserts (0.45 μm pore size, Falcon 3090). Culture media were removed 18-24 hours later by aspiration. Culture medium without drug (1.0 mL) was added to the bottom well, and 1.0 mL medium containing drug was added to the upper cell culture insert. Cell numbers were determined 5 days later, as described above.

[4] = tested on: cytochrome P450 2B1-negative cells (parental 9L and 9L-Z); assay: Drug sensitivity of cultured 9L cells; type: cell-based, rat; settings: millimolar concentrations
Procedure: (§3) To test for drug sensitivity, 1×10^5 cells were plated in 30-mm tissue culture plates (Falcon 3046) in duplicate. Drugs were added 18-24 hours after seeding. Cells were allowed to grow for times ranging up to 5 days after drug treatment, and the final cell number was then determined. Cells were rinsed with phosphate buffered saline or Hank's buffered saline, dispersed using trypsin-EDTA (GIBCO/BRL, Inc.), and then counted with a hemocytometer. Results are expressed as a growth ratio, i.e., the number of cells in plates containing drug as a percentage of the corresponding drug-free controls (mean±range of duplicate determinations).

[5] = tested on: C450-8 (C6-derived clone, cytochrome P450 2B1); assay: Growth in the presence of 500 μM cyclophosphamide; settings: 500 μM CPA, four days
[6] = tested on: cytochrome P450 2B1-positive cells (9L-ZP and L450-2); assay: cells; settings: Rattus norvegicus, 120 h
[7] = tested on: R450-2 (ΨCRE-derived clone, cytochrome P450 2B1); assay: Growth in the presence of 500 μM cyclophosphamide; settings: 500 μM CPA, four days
[8] = tested on: C6 cells exposed to CM from C6; assay: C6 colony formation after conditioned medium from drug-exposed cells; type: cell-based, rat; settings: for Colony numbers: colonies six days later
parental MCF-7 cells = assay: Cyclophosphamide sensitivity of MCF-7 cell lines in culture; type: cell-based, human
Procedure: as §3
(§4) Transfection of MCF-7 cells with the cytochrome P450 2B1 expression plasmid, selection of neomycin-resistant clones, characterization of the expressed cytochrome P450 2B1 protein, and sensitivity of cell lines to drugs were carried out as described in Example 7 for the 9L cytochrome P450 2B1-expressing cell lines.

[9] = tested on: cytochrome P450 2B1-expressing MCF-7 cell lines P2, P3, P5, P8, P9 and P26; assay: as above; type: cell-based, human
Procedure: as §3, §4

MCF-7-Z3 cells = assay: as above; type: cell-based, human
Procedure: as §3, §4

[10] = tested on: C6BAG cells co-cultured with C6VIKWT cells; assay: Simultaneous co-culture, ganciclovir sensitivity of recipient colonies; type: cell-based, rat; settings: 100 μM ganciclovir; donor:recipient ratios of 0.1 and 1
Procedure: For simultaneous co-culture experiments, 10^3 recipient cells, C6BAG or C6BBAG were plated together with 10^5 C6VIK or C6VIKWT donor cells, in duplicate. Controls were C6BAG or C6BBAG cells co-plated with C6BU1 cells at a similar ratio (1:100). After seven days, ganciclovir was added at varying concentrations (0 to 300 μM) and culture was processed as above. To assess the effects of the ratio of the donor cells to recipient cells, simultaneous co-culture experiments were also done varying the ratio of the donor cell, C6VIKWT, to the recipient cell, C6BAG, from 0.1 to 100.

C6BAG and C6VIK cells = assay: Ganciclovir treatment of combined subcutaneous tumors; type: in vivo, nude mice; settings: 14 day course, 25 mg/kg twice a day intraperitoneally
Procedure: Sequential injections of 10^5 C6BAG cells followed immediately by 10^6 C6BU1 cells, C6VIK cells, or C6VIKWT cells at the same injection site, were carried out as above using 20 animals for each combination. After the tumors had reached 1 cm in diameter, ganciclovir treatment was begun for 14 days, 25 mg/kg twice a day intraperitoneally in half of each group, with the other half receiving PBS intraperitoneally as a control. Tumor volume was assessed as the percentage increase over the volume at the beginning of treatment through 17 days.

[11] = tested on: C6 glioma cells and other cells infected with this retrovirus; settings: cell culture; cited from earlier work
C6BAG cells alone = assay: GCV treatment of subcutaneous tumors; type: in vivo, nude mice; settings: subcutaneous inoculation

**Q.** What does the source list for `O=P1(N(CCCl)CCCl)NCCCO1` (centres unmarked) [cyclophosphamide]?
**A.** Tumor cyclophosphamide sensitivity in vivo (control tumor MCF-7 Z3): only a moderate cyclophosphamide sensitivity; Tumor cell kill in vivo [1]: preferentially killed; Colony numbers ([2]; CM after 0.5 h of 0.5 mM CPA): 263 ± 6; Colony numbers ([2]; CM after 1.5 h of 0.5 mM CPA): 267 ± 9; Colony numbers ([2]; CM after 3 h of 0.5 mM CPA): 144 ± 19; Colony numbers ([2]; CM after 6 h of 0.5 mM CPA): 94 ± 8; Colony numbers ([2]; CM after 10 h of 0.5 mM CPA): 12 ± 0.3; Colony numbers ([2]; CM after 24 h of 0.5 mM CPA): 0; Colony numbers ([2]; CM after 32 h of 0.5 mM CPA): 0; Colony numbers ([2]; CM after 48 h of 0.5 mM CPA): 0; Colony numbers ([2]; CM after 72 h of 0.5 mM CPA): 0; Colony numbers ([2]; CM after 96 h of 0.5 mM CPA): 0; Inhibition of C6 cell colony formation ([2]; CM after exposure to CPA for 24 hours): Complete inhibition; Toxicity of conditioned medium to C6 cell growth / colony formation ([2]; CM from treated C6-P450 cells, nine days): highly toxic; Secretion effect, C6 colony number ([2]; Table V panel C, CM from treated C6-P450 cultures): 0; Killing of both cell populations [3]: killed; Effects on growth [4]: no adverse effects; Cell destruction [5]: destroyed completely; IC50 [6]: ~70 µM; Cell destruction [7]: destroyed completely; Colony numbers ([8]; CM after 0.5 h of 0.5 mM CPA): 247 ± 3; Colony numbers ([8]; CM after 1.5 h of 0.5 mM CPA): 256 ± 7; Colony numbers ([8]; CM after 3 h of 0.5 mM CPA): 257 ± 1; Colony numbers ([8]; CM after 6 h of 0.5 mM CPA): 260 ± 4; Colony numbers ([8]; CM after 10 h of 0.5 mM CPA): 245 ± 5; Colony numbers ([8]; CM after 24 h of 0.5 mM CPA): 255 ± 14; Colony numbers ([8]; CM after 32 h of 0.5 mM CPA): 240 ± 2; Colony numbers ([8]; CM after 48 h of 0.5 mM CPA): 245 ± 6; Colony numbers ([8]; CM after 72 h of 0.5 mM CPA): 260 ± 5; Colony numbers ([8]; CM after 96 h of 0.5 mM CPA): 260 ± 9; Secretion effect, C6 colony number ([8]; Table V panel C, CM from treated C6 cultures): 271±14.2; Sensitivity to cyclophosphamide (parental MCF-7 cells): insensitive to high concentrations; Sensitivity to cyclophosphamide cytotoxicity [9]: highly sensitive; Sensitivity to cyclophosphamide (MCF-7-Z3 cells): insensitive to high concentrations

**Q.** Which “ganciclovir sensitivity compared to C6BAG cells alone” value [10] does the source give for `Nc1nc(O)c2ncn(COC(CO)CO)c2n1` [ganciclovir] here?
**A.** no significant difference

**Q.** And the “Tumor volume compared to C6BAG and C6BU1 tumors” value (C6BAG and C6VIK cells)?
**A.** significant decrease in the tumor volume

**Q.** What about the “fold lower ganciclovir concentration killing infected vs uninfected cells” value [11] of the same compound?
**A.** 100 fold

**Q.** What about the Tumor regression (C6BAG cells alone) of the same compound?
**A.** not with C6BAG cells alone
